As usually defined, the inhibition is the percentage by which the read-out fell short of the control. The EC50 is the concentration needed to bring the measured effect to its halfway point.

The text below walks through data of patent publication US4448729A, “Leucotriene antagonists” (American Home Products Corporation, priority 1982, dated 1984).

The subject of experiment [1] is anaphylactic tissue response. Kind of experiment: anaphylactic tissue response / leucotriene activity of nitro substituted compounds. It is filed as cell-based.
Experiment [2] relates to sensitized guinea pig trachea. Kind of experiment: Schultz-Dale reaction, sensitized guinea pig trachea (tracheal spirals), ovalbumin challenge. It is filed as cell-based. The following applies: Cavia porcellus; for inhibition at 10 µM: 10^-5 M; for inhibition at 1 µM: 10^-6 M. The method, then:
The antiallergy activity of the compounds of this invention was established by the Schultz-Dale reaction employing sensitized guinea pig trachea by the following procedure:
(§1) Guinea pigs weighing from about 275 to 325 g. are sensitized to ovalbumin. Three to four weeks later, tracheae are removed under CO2 anesthesia. Excess tissue is removed and each trachea is spirally cut and suspended under 6 g. tension in a tissue bath (37° C.) containing modified Tyrode's solution (pH 7.4) oxygenated with a 95 percent O2 -5 percent CO2 gas mixture. The Tyrodes composition (mmol) is: NaCl, 139.2; KCl, 2.7; MgSO4.7H2 O, 0.49; NaHCO3, 11.9; NaH2 PO4.H2 O, 0.4; CaCl2.2H2 O, 1.8 and glucose, 5.5. Tracheae are allowed to equilibrate for 90 minutes before exposure to agonists or drugs.
A response to histamine is elicited at two bath concentrations (1×10^-6 M and 1×10^-4 M). The lower concentration primes the tissue and is allowed a 5 minute contact period. The higher concentration (10 minute exposure) produces a maximal response for the tissue. In each case, the bath fluid is replaced and the tissue is washed two times with fresh Tyrode solution. Compounds tested are introduced into the bath to produce a 10^-4 M concentration twenty minutes after the second histamine treatment (subsequent testing at 10^-5 and 10^-6 M bath concentrations are employed in dose-response analyses). Ovalbumin (8 μg/ml) is introduced into the bath ten minutes later.
The contracture curve following antigen challenge is compared with the maximal histamine response at 10 minute time intervals up to 90 minutes and the responses are expressed as percentage inhibition. The area under the curve is calculated for each time period. […] The EC50 is calculated from the area under the curve values at 90 minutes to define the effective concentration of test compound which produces a 50 percent reduction in area under the curve compared to control tissues.

Experiment [3] has as its target T1, (Cavia porcellus, UniProt Q2NNR5).
T1 construct: employing guinea pig ileal tissue; from tissue; host or cells: guinea pig ileum
T1 sequence (Q2NNR5 1-340): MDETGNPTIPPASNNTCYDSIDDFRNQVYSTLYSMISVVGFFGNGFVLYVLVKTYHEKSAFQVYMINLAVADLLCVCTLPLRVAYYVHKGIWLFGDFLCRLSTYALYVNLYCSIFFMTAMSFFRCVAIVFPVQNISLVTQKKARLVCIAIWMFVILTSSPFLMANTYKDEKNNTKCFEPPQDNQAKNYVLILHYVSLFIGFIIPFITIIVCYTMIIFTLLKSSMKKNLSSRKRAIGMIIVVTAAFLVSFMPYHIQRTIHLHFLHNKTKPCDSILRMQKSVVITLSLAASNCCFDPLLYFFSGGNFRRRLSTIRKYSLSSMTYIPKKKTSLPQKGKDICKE
Kind of experiment: Schultz-Dale reaction, guinea pig ileal tissue, inhibition of leucotriene D4. It is filed as cell-based. The following applies: Schultz-Dale reaction employing guinea pig ileal tissue; read-out: pA2 as inhibitor of leucotriene D4 (converted).

The subject of experiment [4] is guinea pig lung parenchyma strips. Kind of experiment: Schultz-Dale reaction, guinea pig lung parenchyma strips, ovalbumin challenge. It is filed as cell-based. The following applies: Cavia porcellus, 1 h, at 60 minutes, read-out: Parenchymal Strips % Inhibition at 60 minutes; for inhibition at 100 µM: 10^-4 M. The method, then:
as §1
Following the same basic procedure, guinea pig lung parenchyma strips (25×3×3 mm) dissected along the distal edges of two different lobes are suspended under 1 g. tension in the tissue bath. Equilibration in the Tyrode solution is conducted for 45 minutes with complete solution changes at 15 minute intervals. Maximal contraction induced with histamine (50 μM) primes the tissue. Five minutes later, the bath fluid is exchanged two times and the tissues are allowed to equilibrate 15 minutes longer. The test compound is then introduced into the bath to give a 10^-4 M solution. Five minutes later the ovalbumin challenge (8 μg/ml) is given. The data is collected at ten minute intervals up to 60 minutes and analysed as with the guinea pig trachea technique.

In experiment [5] the test system is SRS-A. The following applies: J.Med.Chem. 20 371 (1977); cited from earlier work.
[6] abbreviates: 1.5 h, 10^-4 M, at 90 minutes, read-out: Tracheal Spirals % Inhibition at 90 minutes.
The mark [7] stands for this setting: 1.5 h, 50 percent reduction in area under the curve at 90 minutes, read-out: Tracheal Spirals EC50.

Structures can show the parent of a compound that is named as a salt. Where two headings read alike, the source gives them in different places.

With `CCCc1c(OCC(O)CNc2cccc([N+](=O)[O-])c2C#N)ccc(C(C)=O)c1O` (centres unmarked) [2-[[3-(4-acetyl-3-hydroxy-2-propylphenoxy)-2-hydroxypropyl]amino]-6-nitrobenzonitrile], the “effect on anaphylactic tissue response” value in experiment [1] is “potentiator of the anaphylactic tissue response”.

Turning to `CCCc1c(OCC(O)COc2cccc(N)c2C#N)ccc(C(C)=O)c1O` (centres unmarked) [Example 1, 2-[3-(4-Acetyl-3-hydroxy-2-propylphenoxy)-2-hydroxypropoxy]-6-aminobenzonitrile], the inhibition at 100 µM in experiment [2] (setting [6]) was 64.2%. In experiment [2] (1.5 h, at 90 minutes), the inhibition at 10 µM stood at 45.7% and the inhibition at 1 µM worked out at 20.6%. Besides, the EC50 in experiment [2] (setting [7]) is 20 µM.

Consider `CCCc1c(OCC(O)COc2cccc(NC(=O)C(=O)OCC)c2C#N)ccc(C(C)=O)c1O` (centres unmarked) [Example 2, [[3-[3-(4-Acetyl-3-hydroxy-2-propylphenoxy)-2-hydroxypropoxy]-2-cyanophenyl]amino]oxoacetic acid ethyl ester], for which the Kb in experiment [3] is 0.000398 µM. Moreover, the inhibition at 100 µM was 73% in experiment [2] (setting [6]) and 65.5% in experiment [4]. The inhibition at 10 µM in experiment [2] (1.5 h, at 90 minutes) turned out to be 63%; in experiment [4] (10^-5 M), 2.09%. For the same molecule, in experiment [2] (1.5 h, at 90 minutes), the inhibition at 1 µM came to 18.8%. For the same molecule, the EC50 in experiment [2] (setting [7]) was determined as 8.7 µM.

As for `CCCc1c(OCC(O)COc2cccc(NC(=O)C(=O)O)c2C#N)ccc(C(C)=O)c1O` (centres unmarked) [Example 3, [[3-[-(4-Acetyl-3-hydroxy-2-propylphenoxy)-2-hydroxypropoxy]-2-cyanophenyl]amino]oxoacetic acid sodium salt], the values for the inhibition at 100 µM in experiment [2] (setting [6]) and in experiment [4] were 62.1% and 22.9%, respectively. Moreover, the inhibition at 10 µM in experiment [2] (1.5 h, at 90 minutes) turned out to be 21.5%. Moreover, the inhibition at 1 µM in experiment [2] (1.5 h, at 90 minutes) was found to be 12.8%. For the same molecule, the EC50 in experiment [2] (setting [7]) came out at 53 µM.

Consider `CCCc1c(OCC(O)COc2cccc(N)c2)ccc(C(C)=O)c1O` (centres unmarked) [Example 4, 1-[2-Hydroxy-3-propyl-4-[2-hydroxy-3-(3-aminophenoxy)propoxy]phenyl]ethanone], for which the inhibition at 100 µM in experiment [2] (setting [6]) came to 76.2%. In experiment [2] (1.5 h, at 90 minutes), the inhibition at 10 µM was 9.07% and the inhibition at 1 µM was 4.98%. The EC50 in experiment [2] (setting [7]) turned out to be 36 µM.

With `CCCc1c(OCC(O)COc2cccc(NC(=O)C(=O)OCC)c2)ccc(C(C)=O)c1O` (centres unmarked) [Example 5, [[3-[3-(4-Acetyl-3-hydroxy-2-propylphenoxy)-2-hydroxypropoxy]phenyl]amino]oxoacetic acid ethyl ester], the inhibition at 100 µM in experiment [2] (setting [6]) was found to be 53%. In experiment [2] (1.5 h, at 90 minutes), the inhibition at 10 µM is 22.8% and the inhibition at 1 µM came out at 8.57%. For the same molecule, the EC50 in experiment [2] (setting [7]) was found to be 97 µM.

For `CCCc1c(OCC(O)CNc2cccc(N)c2C#N)ccc(C(C)=O)c1O` (centres unmarked) [Example 6, 2-Amino-6-[[3-(4-acetyl-3-hydroxy-2-propylphenoxy)-2-hydroxypropyl]amino]benzonitrile], in experiment [2] (setting [6]), the inhibition at 100 µM was found to be 38.8%.

Turning to `CCCc1c(OCC(O)CNc2cccc(NC(=O)C(=O)OCC)c2C#N)ccc(C(C)=O)c1O` (centres unmarked) [Example 7, [[[3-[3-(4-acetyl-3-hydroxy-2-propylphenoxy)-2-hydroxypropyl]amino]-2-cyanophenyl]amino]oxoacetic acid ethyl ester], in experiment [2] (setting [6]), the inhibition at 100 µM was determined as 63.8%. In experiment [2] (1.5 h, at 90 minutes), the inhibition at 10 µM turned out to be 39.3% and the inhibition at 1 µM turned out to be 2.64%. Moreover, in experiment [2] (setting [7]), the concentration giving a half-maximal response (EC50) was determined as 30 µM.

Consider `CCCc1c(OCC(O)CNc2cccc(NC(=O)C(=O)O)c2C#N)ccc(C(C)=O)c1O` (centres unmarked) [Example 8, [[[3-[3-(4-Acetyl-3-hydroxy-2-propylphenoxy)-2-hydroxypropyl]amino]-2-cyanophenyl]amino]oxoacetic acid sodium salt], for which the inhibition at 100 µM in experiment [2] (setting [6]) came out at 63.5%. For the same molecule, in experiment [2] (1.5 h, at 90 minutes), the inhibition at 10 µM was found to be 37.5% and the inhibition at 1 µM amounted to 28.4%. The EC50 in experiment [2] (setting [7]) was determined as 25 µM.

On to `CCCc1c(OCC(O)CNc2cccc(N)c2C(N)=O)ccc(C(C)=O)c1O` (centres unmarked) [Example 9, 2-[3-(4-Acetyl-3-hydroxy-2-propylphenoxy)-2-hydroxypropyl]amino-6-aminobenzamide], for which the inhibition at 100 µM in experiment [2] (setting [6]) was found to be 40.7%.

With `CC(=O)c1ccc(OCC(O)COc2cccc([N+](=O)[O-])c2)cc1O` (centres unmarked) [Example 10, 1-[2-Hydroxy-4-[2-hydroxy-3-(3-nitrophenoxy)propoxy]phenyl]ethanone], in experiment [2] (10^-4 M concentration, sensitized guinea pig trachea, read-out: percent inhibition in the Schultz-Dale reaction), the inhibition at 100 µM is 62%. Further, in experiment [2] (sensitized guinea pig trachea, read-out: EC50 in the Schultz-Dale reaction), the EC50 stood at 76 µM.

As for `CCCc1c(OCC(O)COc2ccc3c(=O)cc(C(=O)[O-])oc3c2CCC)ccc(C(C)=O)c1O.[Na+]` (centres unmarked) [FPL 55712, sodium 7-[3-(4-acetyl-3-hydroxy-2-propylphenoxy)-2-hydroxypropoxy]-4-oxo-8-propyl-4H-1-benzopyran-2-carboxylate], the “antagonism of SRS-A” value in experiment [5] was “specific antagonist of SRS-A”.
